Test results as given in ChEMBL document CHEMBL4130553, “Cornusides A-O, Bioactive Iridoid Glucoside Dimers from the Fruit of Cornus officinalis” (J Nat Prod, 2017).

These compounds were tested on HepG2 (assay: Cytotoxicity in human HepG2 cells assessed as reduction in cell viability incubated for 48 hrs by MTT assay). Conditions: hepg2, 48 h.
Type: cell-based

Row | Structure (SMILES) | Activity
1 | COC(=O)C1=CO[C@@H](O[C@@H]2O[C@H](CO)[C@@H](O)[C@H](O)[C@H]2O)[C@@H]2[C@@H](C)[C@@H](O[C@H]3C[C@@H]4C(C(=O)OC)=CO[C@@H](O[C@@H]5O[C@H](CO)[C@@H](O)[C@H](O)[C@H]5O)[C@@H]4[C@@H](C)O3)C[C@H]12 | Non-Toxic
2 | CCO[C@@H]1C[C@@H]2C(C(=O)OC)=CO[C@@H](O[C@@H]3O[C@H](CO)[C@@H](O)[C@H](O)[C@H]3O)[C@@H]2[C@H](C)O1 | Non-Toxic
3 | COC(=O)C1=CO[C@@H](O[C@@H]2O[C@H](CO)[C@@H](O)[C@H](O)[C@H]2O)[C@@H]2[C@H](C)O[C@H](OC)C[C@H]12 | Non-Toxic
4 | COC(=O)C1=CO[C@@H](O[C@@H]2O[C@H](C)[C@@H](O)[C@H](O)[C@H]2O)[C@@H]2[C@H](C)O[C@@H](O[C@@H]3[C@@H](O)[C@H](O[C@@H]4OC=C(C(=O)OC)[C@H]5C[C@@H](OC)O[C@@H](C)[C@@H]45)O[C@H](CO)[C@H]3O)C[C@H]12 | Non-Toxic
5 | COC(=O)C1=CO[C@@H](O[C@@H]2O[C@H](CO[C@H]3C[C@@H]4C(C(=O)OC)=CO[C@@H](O[C@@H]5O[C@H](CO)[C@@H](O)[C@H](O)[C@H]5O)[C@@H]4[C@H](C)O3)[C@@H](O)[C@H](O)[C@H]2O)[C@@H]2[C@H](C)O[C@@H](OC)C[C@H]12 | Non-Toxic
6 | COC(=O)C1=CO[C@@H](O[C@@H]2O[C@H](CO)[C@@H](O)[C@H](O)[C@H]2O)[C@@H]2[C@H](C)O[C@H](O)C[C@H]12 | Non-Toxic
7 | COC(=O)C1=CO[C@@H](O[C@@H]2O[C@H](CO[C@@H]3C[C@@H]4C(C(=O)OC)=CO[C@@H](O[C@@H]5O[C@H](CO)[C@@H](O)[C@H](O)[C@H]5O)[C@@H]4[C@H](C)O3)[C@@H](O)[C@H](O)[C@H]2O)[C@@H]2[C@H](C)O[C@@H](OC)C[C@H]12 | Non-Toxic
8 | COC(=O)C1=CO[C@@H](O[C@@H]2O[C@H](CO)[C@@H](O)[C@H](O)[C@H]2O[C@@H]2C[C@@H]3C(C(=O)OC)=CO[C@@H](O[C@@H]4O[C@H](CO)[C@@H](O)[C@H](O)[C@H]4O)[C@@H]3[C@H](C)O2)[C@@H]2[C@@H](C)[C@@H](O)C[C@H]12 | Non-Toxic
9 | COC(=O)C1=CO[C@@H](O[C@@H]2O[C@H](CO)[C@@H](O)[C@H](O)[C@H]2O)[C@@H]2[C@H](C)[C@@H](O)C[C@H]12 | Non-Toxic
10 | COC(=O)C1=CO[C@@H](O[C@@H]2O[C@H](C)[C@@H](O)[C@H](O)[C@H]2O)[C@@H]2[C@H](C)O[C@@H](O[C@@H]3[C@@H](O)[C@H](O[C@@H]4OC=C(C(=O)OC)[C@H]5C[C@H](OC)O[C@@H](C)[C@@H]45)O[C@H](CO)[C@H]3O)C[C@H]12 | Non-Toxic
11 | COC(=O)C1=CO[C@@H](O[C@@H]2O[C@H](CO)[C@@H](O)[C@H](O)[C@H]2O)[C@@H]2[C@@H](C)[C@@H](O)C[C@H]12 [LOGANIN] | Non-Toxic
12 | COC(=O)C1=CO[C@@H](O[C@@H]2O[C@H](CO)[C@@H](O)[C@H](O)[C@H]2O)[C@@H]2[C@H](C)O[C@@H](O[C@H]3[C@H](O[C@@H]4OC=C(C(=O)OC)[C@H]5C[C@H](OC)O[C@@H](C)[C@@H]45)O[C@H](CO)[C@@H](O)[C@@H]3O)C[C@H]12 | Non-Toxic
13 | COC(=O)C1=CO[C@@H](O[C@@H]2O[C@H](CO)[C@@H](O)[C@H](O)[C@H]2O)[C@@H]2[C@H](C)O[C@@H](OC)C[C@H]12 | Non-Toxic
14 | COC(=O)C1=CO[C@@H](O[C@@H]2O[C@H](CO[C@@H]3C[C@@H]4C(C(=O)OC)=CO[C@@H](O[C@@H]5O[C@H](CO)[C@@H](O)[C@H](O)[C@H]5O)[C@@H]4[C@H](C)O3)[C@@H](O)[C@H](O)[C@H]2O)[C@@H]2[C@@H](C)[C@@H](O)C[C@H]12 | Non-Toxic
15 | CCO[C@H]1C[C@@H]2C(C(=O)OC)=CO[C@@H](O[C@@H]3O[C@H](CO[C@H]4C[C@@H]5C(C(=O)OC)=CO[C@@H](O[C@@H]6O[C@H](CO)[C@@H](O)[C@H](O)[C@H]6O)[C@@H]5[C@H](C)O4)[C@@H](O)[C@H](O)[C@H]3O)[C@@H]2[C@H](C)O1 | Non-Toxic
16 | COC(=O)C1=CO[C@@H](O[C@@H]2O[C@H](CO)[C@@H](O)[C@H](O)[C@H]2O)[C@@H]2[C@H](C)O[C@@H](O)C[C@H]12 [MORRONISIDE] | Non-Toxic
17 | COC(=O)C1=CO[C@@H](O[C@@H]2O[C@H](CO)[C@@H](O)[C@H](O)[C@H]2O)[C@@H]2[C@H](C)O[C@@H](OC[C@H]3O[C@@H](O[C@@H]4OC=C(C(=O)OC)[C@H]5C[C@@H](OC)O[C@@H](C)[C@@H]45)[C@H](O)[C@@H](O)[C@@H]3O)C[C@H]12 | Non-Toxic
18 | COC(=O)C1=CO[C@@H](O[C@@H]2O[C@H](CO[C@@H]3C[C@@H]4C(C(=O)OC)=CO[C@@H](O[C@@H]5O[C@H](CO)[C@@H](O)[C@H](O)[C@H]5O)[C@@H]4[C@H](C)O3)[C@@H](O)[C@H](O)[C@H]2O)[C@@H]2[C@H](C)O[C@H](OC)C[C@H]12 | Non-Toxic
19 | COC(=O)C1=CO[C@@H](O[C@@H]2O[C@H](C)[C@@H](O)[C@H](O)[C@H]2O)[C@@H]2[C@H](C)O[C@@H](O[C@H]3[C@H](O)[C@@H](O)[C@H](O[C@@H]4OC=C(C(=O)OC)[C@H]5C[C@H](OC)O[C@@H](C)[C@@H]45)O[C@@H]3CO)C[C@H]12 | Non-Toxic
20 | COC(=O)C1=CO[C@@H](O[C@@H]2O[C@H](CO)[C@@H](O)[C@H](O)[C@H]2O)[C@@H]2[C@H](C)O[C@H](O[C@H]3[C@H](O[C@@H]4OC=C(C(=O)OC)[C@H]5C[C@@H](OC)O[C@@H](C)[C@@H]45)O[C@H](CO)[C@@H](O)[C@@H]3O)C[C@H]12 | Non-Toxic
21 | CCO[C@@H]1C[C@@H]2C(C(=O)OC)=CO[C@@H](O[C@@H]3O[C@H](CO[C@H]4C[C@@H]5C(C(=O)OC)=CO[C@@H](O[C@@H]6O[C@H](CO)[C@@H](O)[C@H](O)[C@H]6O)[C@@H]5[C@H](C)O4)[C@@H](O)[C@H](O)[C@H]3O)[C@@H]2[C@H](C)O1 | Non-Toxic
22 | CCO[C@H]1C[C@@H]2C(C(=O)OC)=CO[C@@H](O[C@@H]3O[C@H](CO)[C@@H](O)[C@H](O)[C@H]3O)[C@@H]2[C@H](C)O1 | Non-Toxic
23 | COC(=O)C1=CO[C@@H](O[C@@H]2O[C@H](CO)[C@@H](O)[C@H](O)[C@H]2O)[C@@H]2[C@H](C)O[C@H](O[C@H]3[C@H](O[C@@H]4OC=C(C(=O)OC)[C@H]5C[C@H](OC)O[C@@H](C)[C@@H]45)O[C@H](CO)[C@@H](O)[C@@H]3O)C[C@H]12 | Non-Toxic
24 | C=C[C@H]1[C@H](O[C@@H]2O[C@H](CO)[C@@H](O)[C@H](O)[C@H]2O)OC=C2C(=O)OCC[C@H]21 [SWEROSIDE] | Non-Toxic
25 | COC(=O)C1=CO[C@@H](O[C@@H]2O[C@H](CO)[C@@H](O[C@H]3C[C@@H]4C(C(=O)OC)=CO[C@@H](O[C@@H]5O[C@H](C)[C@@H](O)[C@H](O)[C@H]5O)[C@@H]4[C@H](C)O3)[C@H](O)[C@H]2O)[C@@H]2[C@@H](C)[C@@H](O)C[C@H]12 | Non-Toxic
